From patent US20220387602A1, “BIFUNCTIONAL DEGRADERS AND THEIR METHODS OF USE” (NOVARTIS AG, priority 2019, published 2022) come the findings set out here.

One assay addresses T1, hTNNI3K WT (Homo sapiens, UniProt Q59H18).
T1 construct: expressed in transfected cells
T1 sequence (Q59H18 1-835): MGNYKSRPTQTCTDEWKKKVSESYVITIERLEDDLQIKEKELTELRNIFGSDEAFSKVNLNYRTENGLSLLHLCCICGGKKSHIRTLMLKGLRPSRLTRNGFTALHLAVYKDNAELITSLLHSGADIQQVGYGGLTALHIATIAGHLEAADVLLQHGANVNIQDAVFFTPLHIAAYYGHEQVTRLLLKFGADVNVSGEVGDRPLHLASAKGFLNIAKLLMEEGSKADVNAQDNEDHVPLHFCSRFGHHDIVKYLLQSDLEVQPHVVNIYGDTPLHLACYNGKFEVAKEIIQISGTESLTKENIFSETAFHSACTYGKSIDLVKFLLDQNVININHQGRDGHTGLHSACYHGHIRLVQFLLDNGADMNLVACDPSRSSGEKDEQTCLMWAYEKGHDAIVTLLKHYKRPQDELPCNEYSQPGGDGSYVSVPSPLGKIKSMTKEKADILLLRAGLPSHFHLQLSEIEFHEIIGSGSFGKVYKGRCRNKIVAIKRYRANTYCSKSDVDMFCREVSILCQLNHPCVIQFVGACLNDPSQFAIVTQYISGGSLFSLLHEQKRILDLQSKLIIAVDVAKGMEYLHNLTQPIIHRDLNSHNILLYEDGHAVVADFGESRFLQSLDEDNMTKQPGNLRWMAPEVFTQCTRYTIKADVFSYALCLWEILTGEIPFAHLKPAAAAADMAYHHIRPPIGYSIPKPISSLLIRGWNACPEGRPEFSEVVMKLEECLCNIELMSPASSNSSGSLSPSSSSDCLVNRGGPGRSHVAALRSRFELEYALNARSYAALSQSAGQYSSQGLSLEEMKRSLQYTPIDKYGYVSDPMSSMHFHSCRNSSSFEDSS
Nature of the assay: TNNI3K degradation in HEK293 cells overexpressing hTNNI3K WT (western blot). Format: cell-based. The settings on record: FIGS. 4A-4B; for TNNI3K degradation (western blot): concentration dependent; for concentration from which no residual TNNI3K was detected: western blot, 18 hours. In general terms: A western blot detects proteins with antibodies after separation by electrophoresis.

In assay [1] the target is T2, CRBN (Homo sapiens, UniProt Q96SW2). Nature of the assay: CRBN displacement assay Format 2a (fluorescence polarization, 1536-well, Envision reader). Format: binding. Summed up: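 Competition format: compound first equilibrated with CRBN protein (nominally 40 nM) for 45 min at RT, then challenged 45 min with 5 nM BodipyFL-conjugated lenalidomide tracer. FP measured at 480 nm excitation/535 nm emission; AC50 derived by four-parameter logistic fit of %-saturation.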
(Polarisation of emitted light reports the rotation of a fluorescent probe.)

The target of assay [2] is T2, CRBN. As to the kind of experiment: CRBN displacement assay Format 2b (as 2a, quadruplicate, PHERAstar reader). Format: binding. Here is the method:
Assay conditions are similar to Format 2a with the exception of • a. The assay run in quadruplicate • b. PHERAstar reader (BMG Labtech, Offenburg, Germany) was used instead of an Envision reader • c. For the determination of AC50 values, assays were performed at room temperature in 1536-well plates with a total assay volume of […] per well. The test compounds were dissolved and diluted in 100% DMSO. For the assays, 30 nL of DMSO or compound solution were added per well, followed by the addition of 3 μL protein solution (80 nM protein in 1× assay buffer).

For assay [3], the target named is T2, CRBN. As to the kind of experiment: CRBN displacement assay Format 1 (fluorescence polarization, BodipyFL-lenalidomide probe Compound HH). The format is binding. In a few lines: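 Fluorescence polarization competition: CRBN (nominal 100 nM final) pre-incubated 45 min at room temperature with compound, then BodipyFL-lenalidomide probe added (5 nM final; 0.9% DMSO).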

The target in a further assay is T3, BTK (Homo sapiens, UniProt Q06187).
T3 construct: the BTK open reading frame (ORF) was first shuttled from a pcDNA-DEST40-BTK vector; expressed in transfected cells; host or cells: HEK293A (Invitrogen R70507), lentiviral transduction, blasticidin selection
Nature of the assay: BTK-GFP protein abundance flow cytometry assay in HEK293A. The format is cell-based. The settings on record: 24 h. In a few lines: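 HEK293A cells stably expressing bicistronic BTK-GFP-iresRFP were treated 24 h at 37° C with 10-point 1:3 dilutions from 10 μM, DMSO at 0.1%. GFP was read by flow cytometry as median of 5,000 single cells, scaled between RFP-only cells (0%) and DMSO controls (100%). DC50 = concentration at 50% degradation; Amax = % protein remaining at maximal degradation.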
A general note: In flow cytometry, cells or beads pass a laser one at a time.

Where [4] appears, read: concentration at which 50% of reference probe Compound HH is displaced, 40 nM protein, 5 nM probe, read-out: CRBN AC50 [μM] Format 2a.
Setting [5] is: concentration at which 50% of reference probe Compound HH is displaced, quadruplicate, read-out: CRBN AC50 [μM] Format 2b.

T2 sequence (Q96SW2 whole entry): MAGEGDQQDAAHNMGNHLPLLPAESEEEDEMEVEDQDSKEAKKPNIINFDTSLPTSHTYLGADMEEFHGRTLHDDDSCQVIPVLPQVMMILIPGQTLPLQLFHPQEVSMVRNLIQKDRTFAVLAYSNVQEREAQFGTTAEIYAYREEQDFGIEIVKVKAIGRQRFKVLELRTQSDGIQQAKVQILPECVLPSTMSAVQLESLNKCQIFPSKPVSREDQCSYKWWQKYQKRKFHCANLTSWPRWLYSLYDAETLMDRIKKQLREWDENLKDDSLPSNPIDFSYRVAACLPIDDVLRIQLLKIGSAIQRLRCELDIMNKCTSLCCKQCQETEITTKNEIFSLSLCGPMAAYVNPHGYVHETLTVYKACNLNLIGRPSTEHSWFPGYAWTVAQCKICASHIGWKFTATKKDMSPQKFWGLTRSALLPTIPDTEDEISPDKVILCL
T3 sequence (Q06187 whole entry): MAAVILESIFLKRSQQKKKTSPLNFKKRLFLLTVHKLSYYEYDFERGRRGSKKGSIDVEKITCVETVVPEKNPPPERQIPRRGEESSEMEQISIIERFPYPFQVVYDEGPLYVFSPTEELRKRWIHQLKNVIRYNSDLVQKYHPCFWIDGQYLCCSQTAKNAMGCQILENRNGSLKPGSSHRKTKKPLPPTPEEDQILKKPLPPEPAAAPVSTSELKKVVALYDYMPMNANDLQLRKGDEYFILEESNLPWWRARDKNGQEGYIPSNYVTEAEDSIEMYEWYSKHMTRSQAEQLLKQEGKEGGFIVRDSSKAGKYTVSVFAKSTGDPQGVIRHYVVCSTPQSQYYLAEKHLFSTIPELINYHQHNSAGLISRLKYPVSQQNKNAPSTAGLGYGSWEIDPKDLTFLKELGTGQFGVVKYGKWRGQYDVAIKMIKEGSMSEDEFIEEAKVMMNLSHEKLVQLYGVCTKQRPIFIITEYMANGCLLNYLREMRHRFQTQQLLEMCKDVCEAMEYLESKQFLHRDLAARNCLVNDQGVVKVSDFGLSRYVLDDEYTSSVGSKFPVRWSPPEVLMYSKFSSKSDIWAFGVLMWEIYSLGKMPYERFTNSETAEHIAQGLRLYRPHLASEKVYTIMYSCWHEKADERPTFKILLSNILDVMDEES
Description for hTNNI3K WT: HEK293-hTNNI3K stable cells were seeded at 400,000 cells/well in 6-well plate and incubated at 37° C. and 5% CO2 overnight in DMEM containing 10% FBS. The following day growth media was replaced with low-serum media containing DMEM with 0.5% FBS and incubated at 37° C. and 5% CO2 overnight. Following overnight serum starvation, cells were treated with compounds at 20 μM starting dose with 1:5 serial dilution prepared in low-serum media. Media was removed and compounds were added to 6-well plate at 2 mL per well and cells were incubated at 37° C. and 5% CO2 for 18 hours. Following compound treatment cells were washed with cold DPBS containing protease/phosphatase inhibitor cocktail (Thermo #1861284) and lysed in RIPA buffer on ice (Pierce #89900, also containing protease/phosphatase inhibitors). Following sonication and frequent vortexing at 4° C. for approximately 1 hour, samples were centrifuged at 14,000 rpm for 20 minutes. Supernatants were collected for protein samples. Protein concentration was determined using BioRad DC Protein Assay (FIGS. 3A and 3C).
Samples for western blotting were prepared in loading buffer (Thermo #NP0007) and 8 μg protein was loaded per lane in 4-12% Novex Bis-Tris gel and run at 60V for approximately 1 hour. Gels were transferred to PVDF membrane using semi-dry transfer device iBlot 2 from Thermo Scientific. Blots were blocked using Superblock T20 blocking solution for 2 hours at room temperature (Thermo #37536). Blots were then incubated with primary antibodies overnight with gentle shaking at 4° C. (TNNI3K #ab136954 and Beta-Actin CST #3700) at 1:1000 and 1:2000 dilution respectively. Following overnight primary antibody incubation, blots were washed 3 times on rocker for 5 minutes each with 1×TBS-T at room temperature. Blots were then incubated with secondary HRP-anti-rabbit at 1:2000 dilution (CST #7074) for 2 hours at room temperature. Blots were then washed with 1×TBS-T 3 times on rocker for 5 minutes each. Protein bands were detected using BioRad Chemi-Doc station and Supersignal West Dura substrate (Thermo #34075). Protein bands were quantified using ImageJ software. TNNI3K bands were normalized to beta-actin loading control. Data are graphed by fold change of cpd over DMSO control.
Here the amount of total normalized TNNI3K expression levels were monitored upon compound treatment in a dose dependent manner. IC50 refers to the concentration at which 50% reduction in protein expression was observed.

Consider `CNS(=O)(=O)c1ccc(N(C)C)c(Nc2ncnc3cc(OCCCN4CCC5(CC4)CN(CC#Cc4ccc(N6CCC(=O)NC6=O)cc4)CCO5)ccc23)c1` [Compound 22, 4-(dimethylamino)-3-((7-(3-(4-(3-(4-(2,4-dioxotetrahydropyrimidin-1(2H)-yl)phenyl)prop-2-yn-1-yl)-1-oxa-4,9-diazaspiro[5.5]undecan-9-yl)propoxy)quinazolin-4-yl)amino)-N-methylbenzenesulfonamide], for which, at hTNNI3K WT, the “TNNI3K degradation (western blot)” value is “full degradation” and the “concentration from which no residual TNNI3K was detected” value was 32 nM.

As to `C=C(C)c1cncc(N2CCC(=O)NC2=O)c1` [ILB-74, 1-(5-(Prop-1-en-2-yl)pyridin-3-yl)dihydropyrimidine-2,4(1H,3H)-dione], the AC50 – broadly, the midpoint of the concentration-response curve, whichever way the signal moves – at CRBN [1] (setting [4]) was determined as 6.28 µM; at CRBN [2] (setting [5]) it was 4.61 µM.

Turning to `O=C1CCN(c2cncc(O)c2)C(=O)N1` [ILB-77, 1-(5-Hydroxypyridin-3-yl)dihydropyrimidine-2,4(1H,3H)-dione], the AC50 worked out at 0.5 µM at CRBN [1] (setting [4]) and 0.3 µM at CRBN [2] (setting [5]).

Turning to `O=C1CCN(c2cncc(Br)c2)C(=O)N1` [ILB-76, 1-(5-Bromopyridin-3-yl)dihydropyrimidine-2,4(1H,3H)-dione], the AC50 is 8.09 µM at CRBN [1] (setting [4]) and 15.3 µM on CRBN [2] (setting [5]).

For `CCOC(=O)Cc1cncc(N2CCC(=O)NC2=O)c1` [ILB-71, Ethyl 2-(5-(2,4-dioxotetrahydropyrimidin-1(2H)-yl)pyridin-3-yl)acetate], the AC50 on CRBN [1] (setting [4]) is 6.01 µM; on CRBN [2] (setting [5]), 8 µM.

Take `O=C1CCN(c2cncc(Cl)c2)C(=O)N1` [ILB-73, 1-(5-Chloropyridin-3-yl)dihydropyrimidine-2,4(1H,3H)-dione]: the AC50 came out at 15 µM at CRBN [1] and 11.9 µM at CRBN [2].

Take `CCOC(=O)c1cncc(N2CCC(=O)NC2=O)c1` [ILB-78, Ethyl 5-(2,4-dioxotetrahydropyrimidin-1(2H)-yl)nicotinate]: the AC50 on CRBN [1] (setting [4]) is 5.72 µM; on CRBN [2] (setting [5]), 5.07 µM.

As to `O=C1CCN(c2cn[nH]c2)C(=O)N1` [ILB-79, 1-(1H-Pyrazol-4-yl)dihydropyrimidine-2,4(1H,3H)-dione], the AC50 at CRBN [1] was determined as 7.15 µM; on CRBN [2], 6.78 µM.

As for `COC(=O)c1cncc(N2CCC(=O)NC2=O)c1` [ILB-72, Methyl 5-(2,4-dioxotetrahydropyrimidin-1(2H)-yl)nicotinate], the AC50 at CRBN [1] (setting [4]) stood at 29.4 µM; at CRBN [2] (setting [5]), 18 µM.

For the compound `CC(O)c1ccc(N2CCC(=O)NC2=O)cn1` (centres unmarked) [ILB-75, 1-(6-(1-Hydroxyethyl)pyridin-3-yl)dihydropyrimidine-2,4(1H,3H)-dione], the AC50 is greater than 50 µM at CRBN [1] and 28.7 µM on CRBN [2]. Moreover, at CRBN [1] (greatest effect as % displacement of the reference probe at the highest concentration tested (50 μM), given where AC50 >50 μM, 45 min), the “CRBN Amax* (% at 50 μM) Format 2a” value was found to be 40%.

As to `CNS(=O)(=O)c1ccc(N(C)C)c(Nc2ncnc3cc(OCCCN4CCN(C(=O)N5CCN(CCC#Cc6ccc(N7CCC(=O)NC7=O)cc6)CC5)CC4)ccc23)c1` [Compound 21, 4-(dimethylamino)-3-((7-(3-(4-(4-(4-(4-(2,4-dioxotetrahydropyrimidin-1(2H)-yl)phenyl)but-3-yn-1-yl)piperazine-1-carbonyl)piperazin-1-yl)propoxy)quinazolin-4-yl)amino)-N-methylbenzenesulfonamide], on hTNNI3K WT, the “TNNI3K degradation (western blot)” value is listed as “full degradation” and the “concentration from which no residual TNNI3K was detected” value is recorded as 6 nM.

Compound `Cc1c(NC(=O)c2ccc(C(C)(C)O)cc2F)cc(F)cc1-c1ncnc2[nH]c(-c3ccc(CNCCCCCCOc4cccc(N5CCC(=O)NC5=O)c4)cc3)cc12` [Compound 14, N-(3-(6-(4-(((6-(3-(2,4-Dioxotetrahydropyrimidin-1(2H)-yl)phenoxy)hexyl)amino)methyl)phenyl)-7H-pyrrolo[2,3-d]pyrimidin-4-yl)-5-fluoro-2-methylphenyl)-2-fluoro-4-(2-hydroxypropan-2-yl)benzamide] registered an AC50 at CRBN [3] of 0.504 µM. Moreover, the “BTK degradation Amax” value at BTK (% protein remaining at the concentration at which maximum degradation is seen, HEK293A) came out at 25.9%. For the same compound, it took 0.0259 µM to reach half-maximal degradation at BTK (concentration at which 50% maximal degradation was observed, HEK293A BTK-GFP sensor cells) (DC50).
